# According to patent publication US20220401460A1, “MODULATING RESISTANCE TO BCL-2 INHIBITORS” (Dana-Farber Cancer Institute, Inc., priority 2018, published 2022):
# Residues, ends and D or L forms follow the SMILES beside them. *: point of attachment. Cbz = O=C(OCc1ccccc1)*; CH2F = FC*
# Assays:
# OCI-Ly1-S cells [1] = test: Cell Titer-Glo viability assay and Chou-Talalay synergy analysis, parental OCI-Ly1-S cells; assay type: cell-based, human
# OCI-Ly1-R cells = test: Cell Titer-Glo viability assay, venetoclax-resistant OCI-Ly1-R cells; assay type: cell-based, human; settings: for restoration of venetoclax sensitivity: combination with venetoclax, OCI-Ly1-R cells
# [2] = test system: ID3 knockout OCI-Ly1 cells; test: Viability of single-cell clones from ID3 knockout OCI-Ly1 cells; assay type: cell-based, human; settings: single cell clones from ID3 knockout line, viability at 24 hours
# Experimental: (§1) Cell viability assay. The Cell Titer-Glo Luminescent Cell Viability Assay (Promega) was used to determine the relative number of viable cells after drug treatment. 0.2×10^6 cells/mL were seeded in a 24 well-plate and treated with drugs for 24 or 48 hours. The viability assay was conducted using the manufacturer's protocol after treatment. Values were normalized to DMSO-treated cells. Plates were read on a SpectraMax M3 reader (Molecular Devices).
# Single-cell cloning of the ID3 knockout. OCI-Ly1 cells was performed using […] dilution strategy. Cells from the bulk ID3 OCI-Ly1 were seeded at a concentration of 0.5 cells/well in a 96-well plate (5 plates per cell line). To investigate the presence of mutations, 6 clones per sgRNA were analyzed by PCR and Sanger sequencing using primers flanking the target sites for the sgRNAs (Forward primer: 5′-[…]-3′ (SEQ ID NO:1); Reverse:5′-[…]-3′ (SEQ ID NO:2)). The absence of ID3 protein were confirmed in clones harboring loss-of-function mutations by western blot (FIG. 8d). Three different knockout single-cell clones for each sgRNA were used for further functional studies.
# [3] = test system: knockout and overexpression OCI-Ly1 cell lines; test: Viability/growth of single-gene knockout and overexpression OCI-Ly1 cell lines; assay type: cell-based, human; settings: individual knockout cell lines vs lines transduced with 2 non-targeting control sgRNAs; P<0.05
# Experimental: as §1
# Cloning of sgRNA vectors. […]
# Generation of engineered cell lines. […] As confirmation that the engineered cell lines expressed the expected alterations, Applicants: (i) evaluated the expression of the targeted protein by western-blotting (FIG. 6d), and (ii) for the CRISPR-Cas9 engineered cell lines, performed targeted DNA sequencing for the CRISPR target sites before and after 2 weeks of exposure to venetoclax (100 nM), and assessed the proportion of frameshift indels (FIG. 6g). […] Following PCR, samples were purified with Agencourt AMPure XP beads (Beckman Coulter) and quantified on a Bioanalyzer (Agilent) with High Sensitivity DNA chips. Sample libraries were diluted to 4 nM, pooled, and ran on the Illumina MiSeq platform using single-end sequencing with the following parameters: read 1: 296nt, index 1: 6nt.
# OCI-Ly1-S cells [4] = test: Seahorse oxygen consumption (OCR) and extracellular acidification rate (ECAR), OCI-Ly1-S; assay type: cell-based, human
# Experimental: Measurement of oxygen consumption and extracellular acidification rate. For each condition, 1.25×10^5 cells were counted and plated on a Seahorse plate coated with Cell-Tak (Corning Life Sciences) in Seahorse XF DMEM media (Agilent). OCR and ECAR were recorded using a Seahorse XF96 Analyzer (Agilent) for 24 consecutive measurements. OCR is measured before and after the addition of inhibitors to assess mitochondrial function by deriving several parameters of mitochondrial respiration: (i) basal respiration, (ii) ATP-linked respiration and proton leak respiration (after 3 μM oligomycin [Sigma], a complex V inhibitor) and (iii) maximal respiration (after 1 μM carbonyl cyanide m-chlorophenyl hydrazine (CCCP) [Sigma], a protonophore).
# To measure the effect of venetoclax on OCR/ECAR, cells were pre-treated for 1 h with […] of zVAD-FMK (Abcam) or left untreated and OCR/ECAR were recorded for 4 measurements before injection of venetoclax at a final concentration of 100 nM. DMSO injection was used as control.
# CLL patients = CLL patients treated with venetoclax in clinical trials (response, progression); assay type: in vivo, human
# Excerpt: Human samples. Genomic DNA was isolated (DNAeasy Blood and Tissue Kit, Qiagen) from specimens collected from CLL patients enrolled on clinical trials of venetoclax treatment (NCT01328626, NCT02141282), approved by and conducted in accordance with the principles of the Declaration of Helsinki and with the approval of the Institutional Review Boards (IRB) of the University of Texas/MD Anderson Cancer Center (MDACC; Patients 1, 3, 4) or of Dana-Farber Cancer Institute (DFCI; Patient 2, 5, 6). Blood and/or tissue tumor samples were collected at baseline, before initiation of venetoclax therapy, and at relapse or progression on venetoclax.
# [5] = 6 CLL patients progressing on venetoclax
compound,measurement,setting,value
Cc1c(-c2c(-c3ccc(F)o3)sc3ncnc(O[C@H](Cc4ccccc4OCc4ccnn4CC(F)(F)F)C(=O)O)c23)ccc(OCCN2CCN(C)CC2)c1Cl [S63845],combination index (synergy with venetoclax),"OCI-Ly1-S cells [1]; combination with venetoclax, OCI-Ly1-S cells, Chou-Talalay method",< 1
same,synergy with venetoclax,OCI-Ly1-R cells; OCI-Ly-R cells,synergized
same,restoration of venetoclax sensitivity,OCI-Ly1-R cells,restore venetoclax sensitivity
CC[C@H]1/C=C/C=C/C[C@@H](C)[C@H](O)[C@@](C)(O)C(=O)[C@@H](C)[C@H](O)[C@@H](C)C(=O)[C@@H](C)[C@H](O)[C@@H](C)/C=C/C(=O)O[C@@H]2[C@H](C)[C@H](CC1)O[C@]1(CC[C@H](C)[C@H](C[C@@H](C)O)O1)[C@H]2C [oligomycin],restoration of venetoclax sensitivity,OCI-Ly1-R cells,restore sensitivity to venetoclax
same,sensitivity to the combination with venetoclax vs control cells,[2],more sensitive
CC1(C)CCC(CN2CCN(c3ccc(C(=O)NS(=O)(=O)c4ccc(NCC5CCOCC5)c([N+](=O)[O-])c4)c(Oc4cnc5[nH]ccc5c4)c3)CC2)=C(c2ccc(Cl)cc2)C1 [venetoclax],IC50,"OCI-Ly1-S cells [1]; Homo sapiens, parental OCI-Ly1-S cells",4 nM
same,IC50,"OCI-Ly1-R cells; Homo sapiens, OCI-Ly1-R cells generated by chronic in vitro drug exposure",1000 nM
same,median increase in IC50,[3],2.1 fold
same,decrease in oxygen consumption,"OCI-Ly1-S cells [4]; OCI-Ly1-S cells, within 20 minutes after drug exposure, venetoclax 100 nM",2 fold
same,median time to relapse,CLL patients; [5],16.4 months
same,range of time to relapse,CLL patients; [5],5.1-22.8 months
same,Time to progression (months),"CLL patients; Patient 1, daily dose 400 mg",22.8 months
same,Time to progression (months),"CLL patients; Patient 2, daily dose 400 mg",7.1 months
same,Time to progression (months),"CLL patients; Patient 3, daily dose 400 mg",16.4 months
same,Time to progression (months),"CLL patients; Patient 4, daily dose 400 mg",5.1 months
same,Time to progression (months),"CLL patients; Patient 5, daily dose 400 mg",8.2 months
same,Time to progression (months),"CLL patients; Patient 6, daily dose 1200 mg then 400 mg",22.8 months
COC(=O)C[C@H](NC(=O)[C@H](C)NC(=O)[C@@H](NC(=O)OCc1ccccc1)C(C)C)C(=O)CF [zVAD] (Cbz-Val-Ala-Asp(OMe)-CH2F),prevention of venetoclax impact on OXPHOS,OCI-Ly1-S cells [4]; 1 h pre-treatment with zVAD-FMK before venetoclax,not fully prevented
